Laboratory results taken from paper PMC11489226 (Archives of Toxicology, 2024).
Several values for one entry are separate records, joined by “and”; a condition that tells them apart may be missing. Equal entries are not always repeated.

Experiments:
CYP3A4 = CYP3A4 (Homo sapiens, UniProt P08684); test: Metabolism in transgenic HEK293 cells expressing CYP3A4; details: 20 µM parent PCB, 24 h, supernatant
Method: (§1) For the generation of transgenic cell lines, we used semi-adherent HEK293 cells (DSMZ, ACC305, human embryonic kidney cells) which were cultured on a daily basis in DMEM medium supplemented with 10% (FCS) and 1% penicillin/streptomycin. In a first step CYP1A2, CYP2C8, CYP2C9, CYP3A4, CYP2A6, and CYP2E1 cDNA were cloned into the plasmid pcDNATM3.1/V5-His TOPO® using human liver RNA as a template and using the following primers: CYP1A2 for5′-[…]-3′, CYP1A2 rev 5′-[…]-3′; CYP2C8 for 5′-[…]-3′, CYP2C8 rev 5′-[…]-3′; CYP2C9 for 5′-[…]-3′, CYP2C9 rev 5′-[…]-3′; CYP3A4 for 5′-[…]-3′, CYP3A4 rev 5′-[…]-3′, CYP2A6 for 5′-[…]-3′, CYP2A6 rev 5′-[…]-3′; CYP2E1 for 5′-[…]-3′, CYP2E1 rev 5′-[…]-3′. Final constructs were verified with Sanger DNA sequencing and restriction digestion. For transfection, 3 × 10^6 HEK293 cells were pre-incubated in a 10 cm dish in DMEM medium with 10% FCS, but without antibiotics, for 18 to 24 h. When the cells reached approximately 70% confluency, they were transfected using TransIT-LT1 transfection reagent (Biozol, Eiching, Germany). The TransIT-LT1 reagent was warmed to room temperature and vortexed. 1.63 mL Opti-MEM, 16.25 µL plasmid DNA (1 µg/µL), and 48.75 µL TransIT-LT1 reagent were mixed and incubated for 15 to 30 min. The mixture was then added dropwise to the medium of the cells, and the cells were incubated again at 37 °C and 5% CO2. After 24 h, the medium was replaced with standard medium and geneticin was added for selection (1 mg/mL). Cells were selected for 6–8 weeks in bulk culture, and single cell clones were obtained subsequently by limiting dilution. Each clone was checked for insertion by PCR using genomic DNA as a template.
(§2) Parallel samples were run without the addition of PCBs. At a confluence of 80%, PCBs (20 μM each, dissolved in ethanol) were added and cells were incubated for 24 h before harvest of supernatants. Supernatants were diluted 1:2 with 80 μL acetate buffer 0.1 M (pH = 5.3). 100 μL of this dilution were further incubated with 100 μL of ammonium acetate buffer 0.1 M (pH = 5.3) and 5 μL of β-Glucuronidase/Arylsulfatase enzyme overnight in a drying oven at 37 °C for enzymatic hydrolysis to release conjugated compounds. 50 μL of a mix of internal standards (10 ng/mL) and 600 μL of methanol were added to the samples, then mixed by vortexing for 1 min and centrifuged for 10 min at 3400g. The individual supernatants were transferred to glass LC vials and evaporated to approximately 50 μL at 45 °C under a gentle stream of nitrogen. Finally, 0.1 mol/ L ammonium acetate buffer was added to a final volume of 100 μL and then transferred to an insert for analysis.
(§3) HEK293 cells overexpressing the respective CYP enzymes were seeded onto 6-well plates and were treated with or without 10 µM of the respective probe drug in DMEM medium for 24 hours at 37 °C and 5 % CO2. After incubation 200 µL DMEM were collected, cells were washed with PBS and adherent cells were lysed in 500 µL methanol for 20 minutes. Analytes were measured by LC-MS/MS either in methanol cell lysates or in DMEM supernatant.
(§4) 50 µL of DMEM samples were protein precipitated by adding 200 µL of methanol and were centrifuged for 20 min, 17,000 g and 4°C. Supernatants were diluted in water or 40 % methanol according to dilution factor. Methanol cell lysates were diluted ½ with water and centrifuged for 20 min, 17,000 g and 4°C. 5 µL of the processed samples were injected for LC-MS analysis.

CYP2E1 = CYP2E1 (Homo sapiens, UniProt P05181); test: Metabolism in transgenic HEK293 cells expressing CYP2E1; details: 20 µM parent PCB, 24 h, supernatant
Method: as §1, §2, §3, §4

CYP1A2 = molecular target: T1, CYP1A2 (Homo sapiens, UniProt P05177); test: Metabolism in transgenic HEK293 cells expressing CYP1A2 (LC-MS/MS of supernatant); details: for Quantification of metabolites generated from PCB28, 52, and 101: 20 µM parent PCB, 24 h, supernatant; for Metabolite concentration formed, range across cell clones: HEK293CYP1A2 cell clones, 20 µM PCB28, 24 h
T1 sequence (P05177 1-516): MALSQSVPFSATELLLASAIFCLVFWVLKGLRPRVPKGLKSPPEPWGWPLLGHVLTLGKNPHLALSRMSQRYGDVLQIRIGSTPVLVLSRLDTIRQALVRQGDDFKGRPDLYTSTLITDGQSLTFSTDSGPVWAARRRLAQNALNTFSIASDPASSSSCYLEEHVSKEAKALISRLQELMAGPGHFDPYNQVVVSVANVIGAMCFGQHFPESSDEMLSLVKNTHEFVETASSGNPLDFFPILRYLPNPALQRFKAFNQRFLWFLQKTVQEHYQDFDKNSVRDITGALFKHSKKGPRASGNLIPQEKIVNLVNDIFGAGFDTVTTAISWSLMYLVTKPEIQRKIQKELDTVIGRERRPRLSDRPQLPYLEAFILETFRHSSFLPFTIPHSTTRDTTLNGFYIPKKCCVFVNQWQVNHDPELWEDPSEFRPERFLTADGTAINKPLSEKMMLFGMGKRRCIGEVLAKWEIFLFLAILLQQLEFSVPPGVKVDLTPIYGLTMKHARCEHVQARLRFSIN
Method: as §1, §2, §3, §4

CYP3A4, sequence (P08684 whole entry): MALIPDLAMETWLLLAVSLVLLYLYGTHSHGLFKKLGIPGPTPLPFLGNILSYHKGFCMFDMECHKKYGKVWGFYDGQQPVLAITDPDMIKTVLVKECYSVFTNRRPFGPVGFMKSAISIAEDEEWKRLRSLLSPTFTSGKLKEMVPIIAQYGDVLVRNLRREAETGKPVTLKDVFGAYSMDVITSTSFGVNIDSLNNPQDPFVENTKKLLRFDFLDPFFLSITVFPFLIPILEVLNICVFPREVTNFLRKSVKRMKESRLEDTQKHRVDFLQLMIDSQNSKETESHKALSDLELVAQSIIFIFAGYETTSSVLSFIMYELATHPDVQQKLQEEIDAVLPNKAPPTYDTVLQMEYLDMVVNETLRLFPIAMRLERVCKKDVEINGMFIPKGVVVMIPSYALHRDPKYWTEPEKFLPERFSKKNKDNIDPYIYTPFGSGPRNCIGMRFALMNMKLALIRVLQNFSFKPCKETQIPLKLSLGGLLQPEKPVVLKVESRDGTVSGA
CYP2E1, sequence (P05181 whole entry): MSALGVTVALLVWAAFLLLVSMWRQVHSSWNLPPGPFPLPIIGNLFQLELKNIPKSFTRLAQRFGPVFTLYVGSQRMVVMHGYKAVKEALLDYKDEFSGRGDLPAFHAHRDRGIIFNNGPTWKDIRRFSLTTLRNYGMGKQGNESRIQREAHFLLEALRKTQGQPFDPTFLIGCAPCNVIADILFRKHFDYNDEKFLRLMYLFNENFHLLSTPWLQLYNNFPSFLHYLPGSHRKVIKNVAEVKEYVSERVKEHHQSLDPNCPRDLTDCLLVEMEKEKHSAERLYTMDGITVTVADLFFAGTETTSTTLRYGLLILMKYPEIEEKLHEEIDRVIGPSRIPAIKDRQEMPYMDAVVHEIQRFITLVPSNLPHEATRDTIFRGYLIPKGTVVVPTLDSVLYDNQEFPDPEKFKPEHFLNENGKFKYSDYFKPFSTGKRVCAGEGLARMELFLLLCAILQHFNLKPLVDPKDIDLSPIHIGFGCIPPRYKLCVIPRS

Compound | Quantification of metabolites generated from PCB28, 52, and 101 (CYP3A4; CYP3A4 Clone B4) | Quantification of metabolites generated from PCB28, 52, and 101 (CYP3A4; CYP3A4 Clone D10) | Quantification of metabolites generated from PCB28, 52, and 101 (CYP3A4; CYP3A4 Clone E6) | Quantification of metabolites generated from PCB28, 52, and 101 (CYP2E1; CYP2E1 Clone B4) | Quantification of metabolites generated from PCB28, 52, and 101 (CYP2E1; CYP2E1 Clone B5) | Quantification of metabolites generated from PCB28, 52, and 101 (CYP2E1; CYP2E1 Clone E6) | Quantification of metabolites generated from PCB28, 52, and 101 (CYP1A2; CYP1A2, clone G5) | Quantification of metabolites generated from PCB28, 52, and 101 (CYP1A2; CYP1A2, clone G8) | Metabolite concentration formed, range across cell clones (CYP1A2)
Oc1cc(-c2ccc(Cl)cc2)c(Cl)cc1Cl [5-OHCB28, 2,4,4′-trichloro-5-biphenylol] | <LOQ | <LOQ | <LOQ | <LOQ | <LOQ | <LOQ | 6,22 nM | 9,07 nM | 1.7–2.48 µg/L and 6.22–9.07 nM
Oc1cc(Cl)c(-c2ccc(Cl)cc2)cc1Cl [4-OHCB31, 2,4′,5-trichloro-4-biphenylol] | <LOQ | <LOQ | <LOQ | <LOQ | <LOQ | <LOQ | 0,69 nM | 1,11 nM | 0.19–0.30 µg/L and 0.69–1.11 nM
